In PMC10660337, “Mutate and Conjugate: A Method to Enable Rapid In-Cell Target Validation” (ACS Chemical Biology, 2023):
“And” between values parts separate entries of the source, which are not always exact repeats. Identical values can stand only once. Like-named read-outs stand apart in the source and are kept apart here.

Key:
Format in all cases: binding
[1] = molecular target: T1, BRD4(1)^WT (Homo sapiens, UniProt O60885); experiment: Protein LCMS labeling assay 1; settings: for Covalent labeling of purified BRD4(1)^WT detected using LCMS: after 20 h incubation; for Labeled Protein (%) WT 4 h: 50 μM compound, 10 µM protein, 37 °C, mean of three ± s.e.m., ND = not detectable
T1 construct: Characterization of His6-BRD4(1)WT; made in house; host or cells: E. coli BL21 (DE3)
Experimental: Before introducing a Cys mutant into the first bromodomain of BRD4 [BRD4(1)], we wanted to rule out the possibility that the native Cys residues C125 and C136 (Figures 2A and S1), would react with electrophilic fragments. To test this, we incubated two KAc-mimicking methylisoxazole-based reactive fragments (1 and 2, Figure 2C) with purified BRD4(1)^WT.
(§1) The resulting library of 22 fragments was screened for BRD4(1)^L94C binding at a concentration of 50 μM using a protein LCMS assay (referred to as “labeling assay 1”). […] To assess the selectivity of the fragments for the labeling of C94, hits were also screened against BRD4(1)^WT under the same conditions. […] The acrylamide-based fragment, 12, labeled 98% of BRD4(1)^L94C after 4 h. While 95% of the protein was labeled once, 3% of the protein was labeled twice (Figure 5D). […] Fragment 14, designed by appending a β-dimethylaminomethyl acrylamide to the structure of 12, led to 74% of singly labeled BRD4(1)^L94C after 4 h with no labeling of BRD4(1)^WT observed (Table 1 and Figure 5E). […] However, only 9.9% of labeled BRD4(1)^L94C was observed, substantially lower than the 56% labeling observed for the corresponding 3-methyl regioisomer 10 (Table 1). […]
(§2) Assays were performed in 1.5 mL Eppendorf tubes at 37 °C and gently shaken, unless otherwise stated.
(§3) Experiments were performed in a protein LCMS assay buffer, with 10 µM protein, and 50 µM of the desired compound with a final DMSO concentration of 0.5% (Table S16). Time points were taken at 0, 1 and 4 h, unless otherwise stated, where a 20 µL sample of the reaction mix was taken, diluted with 100 µL Milli-Q water, and flash frozen. Samples were thawed immediately prior to LCMS analysis on a Waters Xevo G2-S system (Waters) fitted with a ProSwift™ RP-2H PSDVB Reversed Phase HPLC Column (Thermofisher). Data was analysed and processed using MassLynx. The total ion chromatograms (TIC) were extracted (region containing protein) and the summed scans were deconvoluted (using MaxEnt). Covalent labeling was calculated using intensities of the unlabeled and labeled protein (Equation 1). Figures were made using GraphPad Prism 7.0.
(§4) Table S16. Buffer composition for protein LCMS.
(§5) Buffer Reagent Composition Amount per 1 L
(§6) Protein LCMS Assay Buffer HEPES 25 mM 6.0 g
(§7) Protein Labelling = Intensity of Labelled Peak × 100

[2] = molecular target: T2, BRD4(1)^L94C (Homo sapiens, UniProt O60885, L94C); experiment: Protein LCMS labeling assay 1; settings: for Labeled Protein (%) L94C 1 h / Labeled Protein (%) L94C 4 h: 50 μM compound, 10 µM protein, 37 °C, mean of three ± s.e.m., ND = not detectable
T2 construct: Characterization of His6-BRD4(1)L94C; made in house; host or cells: E. coli BL21 (DE3)
Experimental: as §1, §2, §3, §4, §5, §6, §7

[3] = molecular target: T2, BRD4(1)^L94C; experiment: AlphaScreen H4_1–20(KAc)4 peptide displacement
Experimental: Under these conditions, all three fragments displaced the peptide from BRD4(1)^L94C, which is consistent with the fragments binding to BRD4(1)^L94C in the expected location (Table 2). […] The longer the mutant protein and electrophile are incubated together, the more time there is for a covalent interaction to occur. […]
(§8) Dose response AlphaScreen™
(§9) The peptide (Table S17) was supplied at >95% purity by GenScript and was stored as 1 mM stocks in […]
(§10) Table S17. Amino acid sequences of peptides used in AlphaScreen™.
(§11) Peptide Amino Acid Sequence […]
(§12) The assay buffer (Table S18, pH 7.6) was filtered through a 0.22 μm filter before use. The buffer is stored at 4 °C as a 5× solution without bovine serum albumin (BSA), which was added on the day of use. The compounds, proteins, and peptides were dispensed into a ProxiPlate-384 Plus (Perkin Elmer) using a Thermo-Fisher electronic multi-channel pipette. For the incubation steps, the plates were sealed, shaken for 10 seconds at 600 rpm on a plate oscillator, and incubated at room temperature in darkness for 30 min or 3.5 h. Ni2+ chelate acceptor and streptavidin donor beads were prepared as a mixture in a 1:300 dilution (0.007 mg/mL final assay concentration, added to the plates and incubated for a further 30 min at room temperature. Plates were read using a SynergyTM 2 MultiMode Microplate Reader using the inbuilt AlphaScreen™ 384 ProxiPlate function: excitation 680 nm, 0.18 sec; emission […]
(§13) Table S18. Composition of assay buffer used in AlphaScreen™ experiments, adjusted to pH 7.6 using an aqueous NaOH […]
(§14) Reagent Composition Mass (mg) for 50 mL
(§15) 50 mM DMSO stock solutions of the compounds were serially diluted, and dispensed into wells (5 μL).
(§16) The protein-peptide mixes (7 μL) for each combination were prepared following the specified final assay concentration (Table S19), and dispensed into wells. Assay beads (8 μL) were added to attain a final assay volume of 20 μL. Dose response curves were obtained for each compound in triplicate, with serial 1:2 dilutions. Data was processed by fitting a four-parameter equation (Equation 2) to calculate IC50 values using Prism software.
(§17) Table S19. Final assay concentrations of each peptide-protein combination.
(§18) Protein Peptide Protein FAC (nM) Peptide FAC (nM)
(§19) Response = Bottom + Top − Bottom

[4] = molecular target: T1, BRD4(1)^WT; experiment: AlphaScreen H4_1–20(KAc)4 peptide displacement
Experimental: as §8, §9, §10, §11, §12, §13, §14, §15, §16, §17, §18, §19

[5] = molecular target: T2, BRD4(1)^L94C; experiment: Fluorescent labeling of purified protein (CuAAC with TAMRA-PEG3-azide, in-gel fluorescence); settings: 50 μM probe, 10 μM protein, 4 h, 37 °C, then CuAAC 1 h
Experimental: When 28, 29, 30, and 42 were incubated with either purified BRD4(1)^L94C or BRD4(1)^WT and subjected to a copper(I)-catalyzed alkyne–azide click reaction (CuAAC) reaction with the fluorescent TAMRA-PEG3-azide dye, all clickable probes labeled the mutant protein and could be visualized using fluorescence imaging of a gel (Figure 6).
Figure 6 Clickable probes 28, 29, 30, and 42 covalently label BRD4(1)^L94C and undergo a subsequent CuAAC reaction with TAMRA-PEG3 azide to fluorescently label the protein, as shown by in-gel fluorescence imaging. Compounds 28, 29, 30, 41, and 42 (50 μM) were incubated with purified BRD4(1)^L94C or BRD4(1)^WT (10 μM) for 4 h at 37 °C, followed by CuAAC reaction with TAMRA-PEG3 azide for 1 h and separation of components by SDS-PAGE. For all compounds other than 30, only labeling of BRD4(1)^L94C was observed. […]
Fluorescent labeling of purified proteins
Assays were performed in 1.5 mL Eppendorf tubes at 37 °C, and gently shaken, unless otherwise stated.
The desired click probe (50 µM) was incubated with protein (10 µM) in protein LCMS buffer for 4 h, after which TAMRA-PEG3-Azide (200 µM), TCEP·HCl (1 mM), TBTA (100 µM), and CuSO4 (1 mM) were added and incubated for a further 1 h at room temperature in the dark. A 25 µL sample of the […]
reaction mix was taken and 8 µL of Lamelli buffer added, and the samples denatured by heating at 95 °C for 10 min. Samples were separated by gel electrophoresis on NuPAGE™ 4–12%, Bis-Tris precast polyacrylamide gels (Thermofisher). Following electrophoresis, gels were stained for 15 min with InstantBlueTM Coomasie® stain (Abcam), destained, and imaged using Bio-rad molecular imager.
Bio-rad Image Lab 6.1 was used to process the data. […]
InstantBlueTM Coomasie® stain (Abcam), destained, and imaged using Bio-rad molecular imager. […]
MEM media. Cells were then harvested and lysed using the previously described protocol above. […]

[6] = IC50 (μM) L94C 1 h, 1 h incubation at RT, mean of three ± s.e.m.
[7] = IC50 (μM) L94C 4 h, 4 h incubation at RT, mean of three ± s.e.m.
[8] = 4 h incubation at RT, mean of three ± s.e.m.

| SMILES | Labeled Protein (%) L94C 1 h [2] [%] | Labeled Protein (%) L94C 4 h ([2]; 4 h) | Labeled Protein (%) WT 4 h [1] | further results |
| --- | --- | --- | --- | --- |
| Cc1cc(CCl)on1 [Compound 1] |  |  |  | Covalent labeling of purified BRD4(1)^WT detected using LCMS [1]: no covalent labeling |
| Cc1cc(CCl)no1 [Compound 2] |  |  |  | Covalent labeling of purified BRD4(1)^WT detected using LCMS [1]: no covalent labeling |
| C=CC(=O)c1cc(C)no1 [Compound 4] | 100 ± 0.0 | 100 ± 0.0% | 83 ± 1.2% |  |
| C=CC(=O)c1cc(C)on1 [Compound 5] | 100.0 ± 0.0 | 100.0 ± 0.0% | 86 ± 7.4% |  |
| C=CC(=O)c1onc(C)c1-c1ccccc1 [Compound 6] | 100 ± 0.0 | 100 ± 0.0% |  |  |
| C#CC(=O)c1cc(C)no1 [Compound 8] | 44 ± 0.6 | 42 ± 1.4% | 29 ± 0.8% |  |
| C#CC(=O)c1cc(C)on1 [Compound 9] | 60 ± 0.7 | 58 ± 1.9% | 22 ± 1.4% |  |
| C=CC(=O)Nc1cc(C)no1 [Compound 10] | 21 ± 1.8 | 56% and 56 ± 0.9% |  |  |
| C=CC(=O)Nc1cc(C)on1 [Compound 11] | 7.6 ± 0.4 | 9.9% and 9.9 ± 0.4% |  |  |
| C=CC(=O)Nc1onc(C)c1-c1ccccc1 [Compound 12] | 70 ± 0.6 | 98% and 98 ± 0.2% | 3% and 3.0 ± 0.2% | BRD4(1)^L94C protein labeled once ([2]; 50 μM, 4 h): 95%; BRD4(1)^L94C protein labeled twice ([2]; 50 μM, 4 h): 3%; IC50 [3, 6]: 5.83 µM and 5.8 µM; IC50 [3, 7]: 1.27 µM and 1.3 µM; IC50 [4, 8]: > 100 µM |
| Cc1cc(NC(=O)/C=C/CN(C)C)on1 [Compound 13] | 16 ± 0.7 | 52% and 52 ± 0.9% |  |  |
| Cc1noc(NC(=O)/C=C/CN(C)C)c1-c1ccccc1 [Compound 14] | 27 ± 2.2 | 74% and 74 ± 2.6% | no labeling | IC50 [3, 6]: 8.69 µM and 8.7 µM; IC50 [3, 7]: 4.45 µM and 4.4 µM; IC50 [4, 8]: > 100 µM |
| C#CC(=O)Nc1cc(C)no1 [Compound 19] | 3.4 ± 0.2 | 15 ± 1.3% |  |  |
| CC#CC(=O)Nc1cc(C)no1 [Compound 20] |  | 7.8 ± 0.2% |  |  |
| Cc1cc(NC(=O)CCl)on1 [Compound 21] | 10 ± 0.7 | 32 ± 0.9% |  |  |
| Cc1noc(NC(=O)CCl)c1-c1ccccc1 [Compound 22] | 5.9 ± 0.3 | 22 ± 0.4% |  |  |
| C#Cc1ccc(-c2c(C)noc2NC(=O)/C=C/CN(C)C)cc1 [Compound 28] | 59 ± 1.9 |  |  | Labeling of purified BRD4(1)^L94C, in-gel fluorescence [5]: high levels |
| C#CCOc1ccc(-c2c(C)noc2NC(=O)/C=C/CN(C)C)cc1 [Compound 29] | 49 ± 2.0 |  |  | Labeling of purified BRD4(1)^L94C, in-gel fluorescence [5]: high levels |
| Cc1noc(C)c1-c1cc(O)cc(C(O)c2cccnc2)c1 (centres unmarked) [OXFBD04 (3), reference compound] |  |  |  | IC50 ([3]; IC50, prevention of H4_1–20(KAc)4 peptide binding to BRD4(1)^L94C, equals the 4 h value of Figure S13): 0.08 ± 0.009 µM; IC50 ([3]; read-out: IC50 (μM) L94C 1 h, 1 h incubation at RT, mean of three ± s.e.m.): 0.059 ± 0.11 µM; IC50 ([4]; equals the 4 h value of Figure S14): 0.183 ± 0.025 µM |
